Data from patent US20160206726A1, “IMMUNOTHERAPY” (priority 2013, published 2016).

Columns and labels:
LCLs (tumour B cells) [1] = experiment: LCL pulsed with cyclic or linear peptide with or without protease inhibitor cocktail; IFN-γ assayed for T cell recognition; type: cell-based; conditions: 10 ug peptide
Procedure: LCLs (tumour B cells) were incubated with or without a protease inhibitor cocktail for 2 hrs at 37° C. […] (SEQ ID No: 278). The protease cleavage sequence “FR” is recognised by Cathepsin B and the T cell epitope […] is restricted to HLA-A*0201. […] These cells were incubated with peptide-specific T cells overnight and IFN-γ assayed for T cell recognition of the processed peptide.

healthy B cells = experiment: Healthy B cells pulsed with cyclic or linear peptide with or without protease inhibitor cocktail; IFN-γ assayed for T cell recognition; type: cell-based; conditions: 10 ug peptide
Procedure: LCLs (tumour B cells) or healthy B cells were incubated with or without a protease inhibitor cocktail for 2 hrs at 37° C. […] The amino acid sequence of the cyclic peptide was […] (SEQ ID No: 278). The protease cleavage sequence “FR” is recognised by Cathepsin B and the T cell epitope […] is restricted to HLA-A*0201. The cyclic peptide was obtained from JPT Peptide Technologies. These cells were incubated with peptide-specific T cells overnight and IFN-γ assayed for T cell recognition of the processed peptide.

LCLs (tumour B cells) [2] = experiment: Plasma stability of cyclic peptide in LCL model (IFN-γ T cell recognition after plasma treatment); type: in vitro ADME, human
Procedure: LCLs (tumour B cells) were incubated with or without a protease inhibitor cocktail (PIC) for 2 hrs at 37° C. […] These cells were incubated with peptide-specific T cells overnight and IFN-γ assayed for T cell recognition of the processed peptide.

[3] = system: SW620 cells (colorectal cell line); experiment: SW620 colorectal cell line pulsed with cyclic or linear peptide with or without protease inhibitor cocktail; IFN-γ assayed for T cell recognition; type: cell-based; conditions: 10 ug peptide
Procedure: SW620 cells (colorectal cell line) incubated with or without a protease inhibitor cocktail for 2 hrs at 37° C. […] These cells were incubated with peptide-specific T cells overnight and IFN-γ assayed for T cell recognition of the processed peptide.
As a control for this, T cells alone were treated with the cyclic peptide. T cells should not process the cyclic form of the peptide but would be able to present the linear form and therefore the level of IFN-γ produced in this control would account for the amount of linear peptide present in the vial of cyclic peptide.

[4] = system: SW620 cells (colorectal cell line); experiment: Plasma stability of cyclic peptide in colorectal cancer model (IFN-γ T cell recognition after plasma treatment); type: in vitro ADME, human; conditions: no target cells
Procedure: (§1) These cells were incubated with peptide-specific T cells overnight and IFN-γ assayed for T cell recognition of the processed peptide.

LCL target cells = experiment: Comparison of the plasma stability of cyclic peptide and APEC in LCL model (IFN-γ T cell recognition after plasma treatment); type: in vitro ADME, human; conditions: no target cells
Procedure: as §1

[5] = protease inhibitor cocktail 2 hrs at 37° C

FRGGANLVPMVATVAA [cyclic peptide]
response with the protease inhibitors compared with T cells cultured with the cyclic peptide alone (LCLs (tumour B cells) [1]): very similar to the level seen when T cells were cultured with the cyclic peptide alone | decrease in the T cell recognition in the presence of the protease inhibitors (LCLs (tumour B cells) [1]; [5]): ~75% | T cell recognition (IFN-γ) of pulsed target cells, with versus without protease inhibitors (LCLs (tumour B cells) [1]; protease inhibitor cocktail 2 hrs at 37° C, peptide-specific T cells overnight): much larger response to IFN-γ when cultured in the absence of the protease inhibitors | amount of IFN-γ with healthy B cells compared with LCL (healthy B cells): significantly decreased amount of IFN-γ compared to the LCL treated with the cyclic peptide | T cell recognition (IFN-γ) of pulsed healthy B cells, with versus without protease inhibitors (healthy B cells; [5]): little difference in the response | effect of protease inhibitor cocktail on response to plasma-treated peptide (LCLs (tumour B cells) [2]; LCLs pre-incubated with PIC, peptide treated 4 hrs with human plasma): there is a decrease when target cells were pre-incubated with the protease inhibitor cocktail | response of T cells alone labelled with the peptide, without and with serum treatment (LCLs (tumour B cells) [2]; T cells alone, no target cells): very small response to the peptide which then disappears upon treatment of the peptide with serum | response with the protease inhibitors compared with T cells cultured with the cyclic peptide alone [3]: very similar to the level seen when T cells were cultured with the cyclic peptide alone | T cell recognition (IFN-γ) of pulsed target cells, with versus without protease inhibitors [3, 5]: much larger response to IFN-γ when cultured in the absence of the protease inhibitors | decrease in the T cell recognition in the presence of the protease inhibitors [3, 5]: ~65% | response of T cells alone labelled with the peptide, without and with serum treatment [4]: very small response to the peptide which then disappears upon treatment of the peptide with serum | response of T cells alone labelled with the peptide, without and with serum treatment (LCL target cells): very small response to the peptide which then disappears upon treatment of the peptide with serum
